We go through 14 compounds from US20220095617A1, “PLANT GROWTH REGULATING AGENT” (IDEMITSU KOSAN CO.,LTD., priority 2019, published 2022).

The subject of assay [1] is lettuce (Green Wave). Description: Example 1: High-temperature stress Petri dish test (lettuce), comparison with other natural products. It counts as in vivo. As to conditions: 0.1 ppm in agar medium.
Assay [2] concerns lettuce (Green Wave). Description: Example 4: High-temperature stress Petri dish test (lettuce), comparison with flavonoids. It counts as in vivo. As to conditions: 0.1 ppm.
The subject of assay [3] is lettuce (Green Wave). Description: Example 2: High-temperature stress Petri dish test (lettuce), blending with neohesperidin.
Method: For seeds, 2% water agar medium (using water as the solvent), which was prepared such that hesperidin (Fujifilm Wako Pure Chemical Corporation; special-grade reagent) and neohesperidin (Fujifilm Wako Pure Chemical Corporation; special-grade reagent) were contained at the predetermined final concentrations shown in Table 2, was filled into square Petri dishes (“model number: D-210-16”, manufactured by As One Corporation). Before high-temperature treatment, lettuce (Green Wave, Takii & Co., Ltd.) was sown on 2% water agar medium, and lettuce seedlings on day 2 after the sowing were transplanted to the above-described agar medium to which the hesperidin and/or the like was/were added. At the time of the transplantation, the tip of the root was marked. Each Petri dish after the transplantation was placed in an incubator (“model number: FLI-2010A”, manufactured by EYELA) at an angle of 45° with respect to the bottom surface, and high-temperature treatment was carried out at 42° C. for 1.5 hours. Thereafter, culture was similarly performed at 23° C. for 2 days, and then the increase in the root length was evaluated in terms of elongation from the tip of the root of each seedling at the time of the transplantation. In addition, for evaluation of the effect of the mixture of hesperidin and neohesperidin in normal cultivation, culture was similarly performed at 23° C. without performing the high-temperature treatment, followed by evaluation of the increase in the root length. […] The Colby's equation is as follows.
E=(x+y)−(x·y)/100 Colby's equation:
E: Expected root length x: Root length in the case of application of hesperidin alone y: Root length in the case of application of neohesperidin alone For each group, 15 measurement results were obtained (N=15).
The subject of the next assay is Rice (Koshihikari) seeds. Description: Example 5: High-temperature stress Petri dish test (rice seeds). Type of assay: in vivo. As to conditions: for Germination rate, Increase rate: non-addition group = 100.0; for Germination rate, Average: seeds 65° C. hot water 10 minutes, 28° C. 5 days. As to the method:
Rice (Koshihikari) seeds were soaked in hot water at 65° C. for 10 minutes to perform high-temperature treatment. […] A group similarly soaked in distilled water was provided as a non-addition group. After the soaking treatment, the seeds were dried in air, and then 20 seeds were sown on each of shallow Petri dishes in which qualitative filter paper was placed. To the filter paper in each Petri dish, 5 mL of distilled water was uniformly added dropwise. […] For each group, three measurement results were obtained (N=3).

The subject of assay [4] is lettuce (Green Wave). Nature of the assay: Example 3: High-temperature stress Petri dish test (lettuce), blending with β-carotene. Type of assay: in vivo. As to conditions: 0.1 ppm.
Setting [5] is: High-temperature treatment (42° C., 1.5 hours), then 23° C. 2 days.
The mark [6] stands for this setting: High-temperature treatment (42° C., 1.5 hours).

In the case of `CC1=C(/C=C/C(C)=C/C=C/C(C)=C/C=C/C=C(C)/C=C/C=C(C)/C=C/C2=C(C)C(=O)[C@@H](O)CC2(C)C)C(C)(C)C[C@H](O)C1=O` [Astaxanthin, reference compound], the Root length is recorded as 11.1 mm in the assay on lettuce (Green Wave) [1] (setting [5]) and 20.0 mm in the assay on lettuce (Green Wave) [1] (Normal cultivation).
The matching figures for `CC1=C(/C=C/C(C)=C/C=C/C(C)=C/C=C/C=C(C)/C=C/C=C(C)/C=C/C(=O)[C@]2(C)C[C@@H](O)CC2(C)C)C(C)(C)C[C@H](O)C1` [Capsanthin, reference compound]: 10.7 mm and 20.4 mm.
As for `O=c1c(-c2ccc(O)cc2)coc2cc(O)ccc12` [Daidzein], the Root length stood at 7.5 mm with lettuce (Green Wave) [2] (setting [6]) and 26.6 mm in the assay on lettuce (Green Wave) [2] (Normal cultivation).
Take `O=c1c(-c2ccc(O)cc2)coc2cc(O)cc(O)c12` [Genistein]: the Root length is given as 7.4 mm in the assay on lettuce (Green Wave) [2] (setting [6]) and 25.8 mm with lettuce (Green Wave) [2] (Normal cultivation).
Turning to `COc1ccc([C@@H]2CC(=O)c3c(O)cc(O)cc3O2)cc1O` [Hesperetin, hesperetin], the Root length in the assay on lettuce (Green Wave) [1] (setting [5]) was 18.0 mm; in the assay with lettuce (Green Wave) [1] (Normal cultivation), 23.5 mm.
On to `O=C1C[C@@H](c2ccc(O)cc2)Oc2cc(O)cc(O)c21` [Naringenin], for which the Root length with lettuce (Green Wave) [2] (setting [6]) was 8.4 mm; in the assay on lettuce (Green Wave) [2] (Normal cultivation), 22.1 mm.
For `COc1ccc(CCC(=O)c2c(O)cc(O[C@@H]3O[C@H](CO)[C@@H](O)[C@H](O)[C@H]3O[C@@H]3O[C@@H](C)[C@H](O)[C@@H](O)[C@H]3O)cc2O)cc1O` [Neohesperidin dihydrochalcone, neohesperidin dihydrochalcone], the Root length is 15.3 mm in the assay on lettuce (Green Wave) [1] (setting [5]) and 23.4 mm with lettuce (Green Wave) [1] (Normal cultivation).
Regarding `COc1ccc([C@@H]2CC(=O)c3c(O)cc(O[C@@H]4O[C@H](CO)[C@@H](O)[C@H](O)[C@H]4O[C@@H]4O[C@@H](C)[C@H](O)[C@@H](O)[C@H]4O)cc3O2)cc1O` [Neohesperidin], the Root length with lettuce (Green Wave) [3] (High-temperature treatment (42° C., 1.5 hours), 0.03 ppm) is on record as 4.9 mm; with lettuce (Green Wave) [3] (High-temperature treatment (42° C., 1.5 hours), 0.1 ppm), 6.4 mm; with lettuce (Green Wave) [3] (Normal cultivation, 0.03 ppm), 17.6 mm; with lettuce (Green Wave) [3] (Normal cultivation, 0.1 ppm) it was 18.1 mm; in the assay on lettuce (Green Wave) [1] (setting [5]), 21.5 mm; with lettuce (Green Wave) [1] (Normal cultivation) it was 26.5 mm.
For the compound `COc1ccc(-c2cc(=O)c3c(OC)c(OC)c(OC)c(OC)c3o2)cc1OC` [Nobiletin, nobiletin], the results for the Root length with lettuce (Green Wave) [1] (setting [5]) and with lettuce (Green Wave) [1] (Normal cultivation) were 14.1 mm and 23.1 mm, respectively.
For `O=C(CCc1ccc(O)cc1)c1c(O)cc(O)cc1O` [Phloretin, phloretin], the results for the Root length in the assay with lettuce (Green Wave) [1] (setting [5]) and with lettuce (Green Wave) [1] (Normal cultivation) were 14.8 mm and 21.9 mm, respectively.
For `COc1ccc(-c2cc(=O)c3c(OC)c(OC)c(OC)c(OC)c3o2)cc1` [Tangeretin, tangeretin], in that order: 18.1 mm and 23.5 mm.
The matching figures for `COc1ccc([C@@H]2CC(=O)c3c(O)cc(O[C@@H]4O[C@H](CO[C@@H]5O[C@@H](C)[C@H](O)[C@@H](O)[C@H]5O)[C@@H](O[C@H]5O[C@H](CO)[C@@H](O)[C@H](O)[C@H]5O)[C@H](O)[C@H]4O)cc3O2)cc1O` [α-Monoglucosyl hesperidin, α-monoglucosyl hesperidin]: 18.7 mm and 23.7 mm.
As to `CC1=C(/C=C/C(C)=C/C=C/C(C)=C/C=C/C=C(C)/C=C/C=C(C)/C=C/C2=C(C)CCCC2(C)C)C(C)(C)CCC1` [β-Carotene, reference compound], the “Germination rate, Increase rate” value is reported as 118.9% with Rice (Koshihikari) seeds (1 ppm), 134.0% with Rice (Koshihikari) seeds (10 ppm) and 103.7% in the assay with Rice (Koshihikari) seeds (100 ppm). Also, the “Germination rate, Average” value is reported as 69.9% in the assay on Rice (Koshihikari) seeds (then soaked 1 hour at 1 ppm), 78.8% with Rice (Koshihikari) seeds (then soaked 1 hour at 10 ppm) and 61.0% with Rice (Koshihikari) seeds (then soaked 1 hour at 100 ppm). The Root length came to 11.2 mm in the assay on lettuce (Green Wave) [1] (setting [5]), 22.3 mm with lettuce (Green Wave) [1] (Normal cultivation), 7.5 mm in the assay with lettuce (Green Wave) [4] (setting [6]) and 23.8 mm with lettuce (Green Wave) [4] (Normal cultivation).
As to hesperidin methylchalcone, the Root length in the assay on lettuce (Green Wave) [1] (setting [5]) is given as 16.7 mm; in the assay on lettuce (Green Wave) [1] (Normal cultivation) it was 22.8 mm.
